From US9616101B2, “Differentiation marker and differentiation control of eye cell” (Kyoto Prefectural Public University Corporation, priority 2012, dated 2017) come the findings set out here.

Entries after “also recorded” stand apart in the source; their conditions may differ.

What all share (assay type): cell-based
The subject of assay [1] is GPR49/LGR5 expression. Nature of the assay: GPR49/LGR5 expression in human corneal tissue treated with Hedgehog signal modulators. Particulars: 100 ng/ml rhShh, 10 μM purmorphamine, 10 μM cyclopamine, 3 days. The source says: (§1) A corneal tissue was embedded with OCT compound (catalog No.: 4583; Sakura Finetek, Tokyo, Japan), and frozen in liquid nitrogen to prepare a frozen corneal tissue section. The frozen block was sliced to 8 μm, applied on a silane-coating slide, and air-dried. For preparing the whole tissue section, a Descemet's membrane containing a corneal endothelial cell was peeled from a corneal tissue, allowed to stand in ice-cooled 100% acetone for 30 seconds, applied on a silane-coating slide, and air-dried. As a cultured corneal endothelial cell, a cell cultured on a LabTek 8-well plastic chamber slide was used. Ice-cooled 100% acetone was added to a corneal tissue and the cultured cell, the resultant was allowed to stand at 4° C. for 15 minutes to fix the cell. After shaking and washing with 0.15% TritonX/PBS-, 1% bovine serum albumin (catalog No.: A4503BSA; Sigma-Aldrich, St. Louis, Mo.) was added, and allowed to stand at room temperature for 30 minutes to perform blocking. A primary antibody was diluted with 1% BSA, and incubated at room temperature for 1 hour. As a primary antibody to be used, anti-rabbit GPR49/LGR5 (catalog No.: GTX71143; 1: 200; GeneTex Inc., San Antonio, Tex.), anti-rabbit Nestin (catalog No.: PRB-570C; 1: 200; COVANCE, Berkeley, Calif.), anti-mouse ABCG2 (catalog No.: NC_236; 1: 2; Kamiya biomedical CO., Seattle, Wash. USA), anti-mouse Ki-67 (catalog No.: 556003; 1: 200 BD Pharmingen™ NJ, USA), anti-rabbit Na^+/K^+ ATPase (catalog No.: A132; 1: 100; Zymed), and anti-rabbit ZO1 (Zymed Laboratries Inc., South San Francisco, Calif.) were used. The resultant was washed with 0.15% Triton/PBS- twice, and PBS- once.
For extracting RNA from a corneal tissue and a cultured cell, RNeasy Mini Kit (catalog No.: 74106; QIAGEN, Valencia, Calif.) was used. Added was 1 μl of OligodT Primer (catalog No.: 18418-020; Invitrogen) per 1 μg of the extracted RNA, and the resultant was incubated at 70° C. for 2 minutes, and immediately ice-cooled. […] The resulting data were analyzed by ABI PRISM (registered trademark) 7000 Sequence Detection System. […]

For assay [2], the system named is cultured human corneal endothelial cell. Nature of the assay: Ki-67 immunostaining and cell morphology of cultured human corneal endothelial cell treated with Hedgehog signal modulators. Particulars: primary human corneal endothelial cell, 2 μM cyclopamine, 3 days; for Ki-67 expression (cell proliferation) as compared with a control: 100 ng/ml rhShh, 2 μM purmorphamine. The protocol:
(§2) After 3 days, immunostain of GPR49/LGR5 and Ki-67 was performed. In addition, RNA of a corneal endothelial cell incubated under the same conditions was extracted, and the amount of expression of mRNA was measured by real time PCR.

In assay [3] the test system is GPR49/LGR5 expression. Nature of the assay: GPR49/LGR5 expression in cultured human corneal endothelial cell treated with Hedgehog signal modulators. To be noted: primary human corneal endothelial cell; 100 ng/ml rhShh, 2 μM purmorphamine, 2 μM cyclopamine; 3 days. The protocol:
as §2

In assay [4] the test system is human corneal endothelial cell. The experiment in a line: Ki67 immunostaining of human corneal endothelial cells incubated with RSPO1 to 4.
Description: as §1
A secondary antibody was diluted with a mixed solution of 1% BSA and 0.15% TrironX/PBS-, and incubated at room temperature for 30 minutes. As a secondary antibody to be used, Alexa™ Fluor 488-labeled (conjugated) goat anti-rabbit IgG (catalog No.: A11034; 1: 1500; Molecular Probe-Invitrogen) and Alexa™ Fluor 488-labeled (conjugated) goat anti-mouse IgG (catalog No.: A11029; 1: 1500; Molecular Probe-Invitrogen) were used. The secondary antibody was shaken and washed with 0.15% Triton/PBS- twice, and PBS- once, subjected to nuclear staining with propidium iodide (catalog No.: SP29004-41; PI; Nacalai Tesque, Inc. Kyoto, Japan), and embedded while covered with a cover glass.
In order to investigate a relationship between R-sporadin 1 (RSPO1), R-spondin 2 (RSPO2), R-spondin 3 (RSPO3), or R-spondin 4 (RSPO4) and differentiation of a corneal endothelial cell, the relationship was studied using RSPO1. Reagents used are as follows. • RSPO1 R&D systems catalog No.: 4645-RS • RSPO2 R&D systems catalog No.: 3266-RS • RSPO3 R&D systems catalog No.: 3500-RS • RSPO4 R&D systems catalog No.: 4575-RS
Then, for the purpose of investigating the influence of RSPO on cell proliferation, RSPO1 to 4 were incubated into a human corneal endothelial cell under conditions of 37° C. and 5% CO2 for 1 day. Thereafter, Ki-67 being a cell proliferation marker was immunostained.

Regarding `CC1=C2C[C@H]3[C@@H](CC=C4C[C@@H](O)CC[C@@]43C)[C@@H]2CC[C@]12O[C@@H]1C[C@H](C)CN[C@H]1[C@H]2C` [cyclopamine], the “expression of GPR49/LGR5 as compared with a control (immunostaining; same result at the mRNA expression level)” value in the assay with GPR49/LGR5 expression [1] is given as “clear expression suppression”. In assay [2], the “Ki-67 expression (cell proliferation) as compared with a control” value (shortened to “Ki-67 expression … compared with a control”) is reported as “suppression of cell proliferation; also recorded: not upregulated” and the cell morphology entry is listed as “abnormality of cell morphology; also recorded: could not maintain a normal hexagonal form”.
On to `c1ccc2c(Oc3nc(Nc4ccc(N5CCOCC5)cc4)c4ncn(C5CCCCC5)c4n3)cccc2c1` [purmorphamine, N-(4-morpholinophenyl)-2-(1-naphthyloxy)-9-cyclohexyl-9H-purine-6-amine], for which the “expression of GPR49/LGR5 as compared with a control (immunostaining; same result at the mRNA expression level)” value in the assay on GPR49/LGR5 expression [1] is on record as “remarkable increase (upregulation)”. The “Ki-67 expression … compared with a control” value in assay [2] is recorded as “elevated; also recorded: upregulated”.
Take “rhShh: recombinant human Sonic hedgehog, ligand of the Hedgehog pathway binding to Ptch1”: the “expression of GPR49/LGR5 as compared with a control (immunostaining; same result at the mRNA expression level)” value in the assay on GPR49/LGR5 expression [1] was “remarkable increase (upregulation)”. Also, the “cell expressing GPR49/LGR5” value in the assay on GPR49/LGR5 expression [3] is “confirmed”. For the same molecule, the figures for the “Ki-67 expression … compared with a control” value in assay [2] and in assay [2] (listed as SHH) were “elevated” and “upregulated”, respectively.

B1: RSPO2: human recombinant R-spondin 2, R&D systems catalog No. 3266-RS (protein, listed as Homo sapiens)
chain: MQFRLFSFALIILNCMDYSHCQGNRWRRSKRASYVSNPICKGCLSCSKDNGCSRCQQKLFFFLRREGMRQYGECLHSCPSGYYGHRAPDMNRCARCRIENCDSCFSKDFCTKCKVGFYLHRGRCFDECPDGFAPLEETMECVEGCEVGHWSEWGTCSRNNRTCGFKWGLETRTRQIVKKPVKDTILCPTIAESRRCKMTMRHCPGGKRTPKAKEKRNKKKKRKLIERAQEQHSVFLATDRANQ
B1: the “Ki67-positive cell rate as compared with a control” value in assay [4] (RSPO2 50 ng/ml, 100 ng/ml (FIG. 12)) is “slightly increased”.

B2: RSPO3: human recombinant R-spondin 3, R&D systems catalog No. 3500-RS (protein, listed as Homo sapiens)
chain: MHLRLISWLFIILNFMEYIGSQNASRGRRQRRMHPNVSQGCQGGCATCSDYNGCLSCKPRLFFALERIGMKQIGVCLSSCPSGYYGTRYPDINKCTKCKADCDTCFNKNFCTKCKSGFYLHLGKCLDNCPEGLEANNHTMECVSIVHCEVSEWNPWSPCTKKGKTCGFKRGTETRVREIIQHPSAKGNLCPPTNETRKCTVQRKKCQKGERGKKGRERKRKKPNKGESKEAIPDSKSLESSKEIPEQRENKQQQKKRKVQDKQKSVSVSTVH
In the case of B2, the “Ki67-positive cell rate as compared with a control” value in assay [4] (RSPO3 50 ng/ml, 200 ng/ml (FIG. 13)) is “slightly increased”.

B3: RSPO4: human recombinant R-spondin 4, R&D systems catalog No. 4575-RS (protein, UniProt Q2I0M5 20-234, looked up)
R-spondin-4: LNRRKKQVGTGLGGNCTGCIICSEENGCSTCQQRLFLFIRREGIRQYGKCLHDCPPGYFGIRGQEVNRCKKCGATCESCFSQDFCIRCKRQFYLYKGKCLPTCPPGTLAHQNTRECQGECELGPWGGWSPCTHNGKTCGSAWGLESRVREAGRAGHEEAATCQVLSESRKCPIQRPCPGERSPGQKKGRKDRRPRKDRKLDRRLDVRPRQPGLQP
Take B3: in assay [4] (RSPO4 50 ng/ml, 500 ng/ml (FIG. 14)), the “Ki67-positive cell rate as compared with a control” value is on record as “slightly increased”.
